Experimental data reported in ChEMBL document CHEMBL1201862, “PubChem BioAssay data set” (2004).
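Step 1: Grow cells in 96-well plates. Step 2: Expose to compound for 48 hours at 5 concentrations. Step 3: Interpolate endpoints linearly; if unreached, use highest concentration. At the GI50, growth is halved.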 The source made the active and inactive calls. Rule as the data show it: active = GI50 up to about 1.1 µM and inactive = higher.

What was measured:
Assay in all cases: NCI anticancer screen, dose series, 48 h
[1] = tested on: A498
[2] = tested on: A549
[3] = tested on: CCRF-CEM
[4] = tested on: EKVX
[5] = tested on: HCT-116
[6] = tested on: HCT-15
[7] = tested on: K562
[8] = tested on: LOX IMVI
[9] = tested on: Malme-3M
[10] = tested on: OVCAR-4
[11] = tested on: OVCAR-5
[12] = tested on: SF-268
[13] = tested on: SF-539
[14] = tested on: SN12C
[15] = tested on: SNB-75
[16] = tested on: SNB-78
[17] = tested on: U-251

SMILES | GI50 [1] | GI50 [2] | GI50 [3] | GI50 [4] | GI50 [5] | GI50 [6] [µM] | GI50 [7] | GI50 [8] | GI50 [9] | GI50 [10] | GI50 [11] | GI50 [12] | GI50 [13] | GI50 [14] | GI50 [15] | GI50 [16] | GI50 [17]
O=[N+]([O-])c1cc(C(F)(F)F)cc([N+](=O)[O-])c1CCl | 18.6 µM (inactive) | 9.53 µM (inactive) | 0.0993 µM (active) | 6.81 µM (inactive) | 0.897 µM (active) | 1.58 | 0.18 µM (active) | 0.0826 µM (active) | 3.23 µM (inactive) | 1.63 µM (inactive) | 5.3 µM (inactive) | 4.09 µM (inactive) | 4.81 µM (inactive) | 1.55 µM (inactive) | 4.5 µM (inactive) | 4.69 µM (inactive) | 3.61 µM (inactive)
O=C(c1ccccc1)C(c1ccccc1)C1(O)C(=O)Nc2ccc([N+](=O)[O-])cc21 (centres undefined) | > 100 µM (inactive) | > 100 µM (inactive) | 41.9 µM (inactive) | > 100 µM (inactive) | > 100 µM (inactive) | > 100 | 42.7 µM (inactive) | 69.7 µM (inactive) | > 100 µM (inactive) | 64.6 µM (inactive) | > 100 µM (inactive) | > 100 µM (inactive) | > 100 µM (inactive) | 62.4 µM (inactive) | 61 µM (inactive) | > 100 µM (inactive) | > 100 µM (inactive)
COc1cc2c(c(OC)c1OC)-c1ccc(SC)c(=O)cc1[C@@H](NCc1ccccc1[N+](=O)[O-])CC2 | 0.00417 µM (active) | 0.00929 µM (active) | 0.00532 µM (active) | 0.0564 µM (active) | 0.00644 µM (active) | 0.0113 | 0.00369 µM (active) | 0.00834 µM (active) | 0.00817 µM (active) | 0.719 µM (active) | 0.0216 µM (active) | 0.0106 µM (active) | 0.00525 µM (active) | 0.0209 µM (active) | 0.00225 µM (active) | 0.00682 µM (active) | 0.0154 µM (active)
COc1cc(C(O)C(=O)c2nc3ccc([N+](=O)[O-])cc3nc2O)ccc1O (centres undefined) | 34.6 µM (inactive) | 98.9 µM (inactive) | 40.7 µM (inactive) | 90.6 µM (inactive) | > 100 µM (inactive) | > 100 | 57.1 µM (inactive) | 40.1 µM (inactive) | > 100 µM (inactive) | > 100 µM (inactive) | > 100 µM (inactive) | > 100 µM (inactive) | 58.1 µM (inactive) | > 100 µM (inactive) |  | > 100 µM (inactive) | > 100 µM (inactive)
COC(=O)/C=C(C)/C=C/c1c(C)c(C(C)=O)c(C)n1C | > 100 µM (inactive) | > 100 µM (inactive) | > 100 µM (inactive) | 88.5 µM (inactive) | > 100 µM (inactive) | > 100 | 32.1 µM (inactive) | > 100 µM (inactive) | > 100 µM (inactive) | 80.9 µM (inactive) | > 100 µM (inactive) | > 100 µM (inactive) | > 100 µM (inactive) | > 100 µM (inactive) |  | > 100 µM (inactive) | > 100 µM (inactive)
COC(OC)C(C)CC(=O)N(C)C (centres undefined) | > 100 µM (inactive) | > 100 µM (inactive) | > 100 µM (inactive) | > 100 µM (inactive) | > 100 µM (inactive) | > 100 | > 100 µM (inactive) | > 100 µM (inactive) |  | > 100 µM (inactive) | > 100 µM (inactive) | > 100 µM (inactive) | > 100 µM (inactive) | > 100 µM (inactive) | > 100 µM (inactive) | > 100 µM (inactive) | > 100 µM (inactive)
O=C(CC(C(=O)c1ccsc1)c1cccs1)c1cccs1 (centres undefined) | 66.4 µM (inactive) | 42.6 µM (inactive) | 43.1 µM (inactive) | 42.5 µM (inactive) | 43.4 µM (inactive) | 65.5 | 73.5 µM (inactive) | 68.2 µM (inactive) | > 100 µM (inactive) | 48.6 µM (inactive) | > 100 µM (inactive) | > 100 µM (inactive) | > 100 µM (inactive) | 65.8 µM (inactive) | 28.1 µM (inactive) | > 100 µM (inactive) | > 100 µM (inactive)
O=C(/C=C1\Nc2ccccc2C(=O)N1c1ccccc1Cl)c1ccccc1 | > 100 µM (inactive) | 87.5 µM (inactive) | > 100 µM (inactive) | > 100 µM (inactive) | 36.5 µM (inactive) | > 100 | 87.5 µM (inactive) | > 100 µM (inactive) | > 100 µM (inactive) | 67.5 µM (inactive) | > 100 µM (inactive) | > 100 µM (inactive) | > 100 µM (inactive) | > 100 µM (inactive) | 32.7 µM (inactive) | > 100 µM (inactive) | > 100 µM (inactive)
O=C(/C=C/c1ccc(OCCCOc2ccc(/C=C/C(=O)c3ccc(Cl)cc3)cc2)cc1)c1ccc(Cl)cc1 |  | > 100 µM (inactive) | > 100 µM (inactive) | > 100 µM (inactive) | > 100 µM (inactive) | > 100 | > 100 µM (inactive) | > 100 µM (inactive) | > 100 µM (inactive) | > 100 µM (inactive) | > 100 µM (inactive) | > 100 µM (inactive) | > 100 µM (inactive) | > 100 µM (inactive) | 34.6 µM (inactive) | > 100 µM (inactive) | > 100 µM (inactive)
C=C1C=CC2(Br)OC3CC(C)(Cl)C(Br)CC13C2(C)C (centres undefined) | 22.3 µM (inactive) | 26.4 µM (inactive) | 25.1 µM (inactive) | 24.5 µM (inactive) | 15 µM (inactive) | 23 | 17.9 µM (inactive) | 18.9 µM (inactive) | 18.2 µM (inactive) | 30.1 µM (inactive) | 17.1 µM (inactive) | 30.1 µM (inactive) | 18.5 µM (inactive) | 18.9 µM (inactive) | 25.2 µM (inactive) | 22.4 µM (inactive) | 18.8 µM (inactive)
CC1CCC2(OC1)OC1CC3C4CCC5CC(O)CCC5(C)C4CC(=O)OC3(C)C1C2C (centres undefined) | > 100 µM (inactive) | > 100 µM (inactive) | > 100 µM (inactive) | > 100 µM (inactive) | > 100 µM (inactive) | > 100 | > 100 µM (inactive) | > 100 µM (inactive) | > 100 µM (inactive) | > 100 µM (inactive) | > 100 µM (inactive) | > 100 µM (inactive) | > 100 µM (inactive) | > 100 µM (inactive) | > 100 µM (inactive) | > 100 µM (inactive) | > 100 µM (inactive)
[O-][n+]1c2cc3c(cc2[n+]([O-])c2c(O)cccc21)CN(CCN1CCOCC1)C3 | 44.6 µM (inactive) | 34.9 µM (inactive) | 6.12 µM (inactive) | 14.9 µM (inactive) | 11.4 µM (inactive) | 27.4 | 12 µM (inactive) |  | 48.9 µM (inactive) | 62.2 µM (inactive) | 38 µM (inactive) | 11.2 µM (inactive) |  | 29 µM (inactive) | 89.1 µM (inactive) | 32.4 µM (inactive) | 12.1 µM (inactive)
NC1=NC(=O)C(CC(=O)Nc2ccc(Cl)cc2Cl)S1 (centres undefined) | 57.4 µM (inactive) | > 100 µM (inactive) | 5.13 µM (inactive) | > 100 µM (inactive) |  | > 100 | > 100 µM (inactive) | > 100 µM (inactive) | > 100 µM (inactive) | > 100 µM (inactive) | > 100 µM (inactive) | > 100 µM (inactive) | > 100 µM (inactive) | > 100 µM (inactive) | > 100 µM (inactive) | > 100 µM (inactive) | > 100 µM (inactive)
O=C(Nc1cc(Cl)c(Cl)cc1Cl)C(=O)C1C(=O)NC(=S)NC1=O | > 100 µM (inactive) | > 100 µM (inactive) | > 100 µM (inactive) | > 100 µM (inactive) | > 100 µM (inactive) | > 100 | > 100 µM (inactive) | > 100 µM (inactive) | > 100 µM (inactive) | > 100 µM (inactive) | > 100 µM (inactive) | > 100 µM (inactive) | > 100 µM (inactive) | > 100 µM (inactive) | > 100 µM (inactive) | > 100 µM (inactive) | > 100 µM (inactive)
COC(=O)C12C3C4C1C1C2C3C41C(=O)N(C(C)C)C(C)C (centres undefined) | > 100 µM (inactive) | > 100 µM (inactive) | > 100 µM (inactive) | > 100 µM (inactive) | > 100 µM (inactive) | > 100 | > 100 µM (inactive) |  | > 100 µM (inactive) | > 100 µM (inactive) | > 100 µM (inactive) | > 100 µM (inactive) | > 100 µM (inactive) | > 100 µM (inactive) | 50.2 µM (inactive) | > 100 µM (inactive) | > 100 µM (inactive)
CCOC(=O)C1C=C2O[C@@H]3OC4(CCCCC4)O[C@@H]3C2C2C(=O)CCC(=O)[C@@]12C(=O)OC (some centres undefined) | > 100 µM (inactive) | > 100 µM (inactive) | > 100 µM (inactive) | > 100 µM (inactive) | > 100 µM (inactive) | > 100 | > 100 µM (inactive) | > 100 µM (inactive) | > 100 µM (inactive) | > 100 µM (inactive) | > 100 µM (inactive) | > 100 µM (inactive) |  | > 100 µM (inactive) | > 100 µM (inactive) | > 100 µM (inactive) | > 100 µM (inactive)
CSC(=S)NNC(=O)c1ccncc1 | 70 µM (inactive) | 61.4 µM (inactive) | 18.9 µM (inactive) | 22.2 µM (inactive) | 21 µM (inactive) | 15 | 19.2 µM (inactive) | 16.8 µM (inactive) | 18.8 µM (inactive) |  | 23.9 µM (inactive) | 21.6 µM (inactive) | 19.8 µM (inactive) | 21.4 µM (inactive) | 17.5 µM (inactive) | 28.2 µM (inactive) | 22.5 µM (inactive)
